Several values for one entry are separate records, joined by “and”; a condition that tells them apart may be missing. Equal entries are not always repeated.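 1) Cells in 96-well plates. 2) Compound, 48 h, 5 concentrations. 3) Linear interpolation between surrounding doses. 4) Unreached endpoint = highest concentration. Here, GI50 denotes the concentration required for 50% inhibition of growth. TGI is the concentration that stops growth completely.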
Assays:
Assay in all cases: NCI tumour cell line growth inhibition, 48 h
TK-10 renal = system: TK-10 renal
A549 NSCLC = system: A549 NSCLC
CAKI-1 renal = system: CAKI-1 renal
NCI-H226 lung = system: NCI-H226 lung
BT-549 breast = system: BT-549 breast
SF-295 CNS = system: SF-295 CNS
HS 578T breast = system: HS 578T breast
LOX IMVI melanoma = system: LOX IMVI melanoma
MOLT-4 leukemia = system: MOLT-4 leukemia
T-47D breast = system: T-47D breast
M14 melanoma = system: M14 melanoma
IGROV1 ovarian = system: IGROV1 ovarian
A498 renal = system: A498 renal
MDA-MB-468 breast = system: MDA-MB-468 breast
NCI/ADR-RES ovarian = system: NCI/ADR-RES ovarian
CCRF-CEM leukemia = system: CCRF-CEM leukemia
COLO 205 colon = system: COLO 205 colon
SN12C renal = system: SN12C renal
RPMI-8226 leukemia = system: RPMI-8226 leukemia
HL-60(TB) leukemia = system: HL-60(TB) leukemia
SK-OV-3 ovarian = system: SK-OV-3 ovarian
UO-31 renal = system: UO-31 renal
ACHN renal = system: ACHN renal
EKVX NSCLC = system: EKVX NSCLC
UACC-257 melanoma = system: UACC-257 melanoma
OVCAR-5 ovarian = system: OVCAR-5 ovarian
HCC-2998 colon = system: HCC-2998 colon
RXF 393 renal = system: RXF 393 renal
SR leukemia = system: SR leukemia
SK-MEL-5 melanoma = system: SK-MEL-5 melanoma
K-562 leukemia = system: K-562 leukemia
NCI-H522 lung = system: NCI-H522 lung
MALME-3M melanoma = system: MALME-3M melanoma
UACC-62 melanoma = system: UACC-62 melanoma
DU-145 prostate = system: DU-145 prostate
786-0 renal = system: 786-0 renal

CC1=C(CCC=O)C2=C(C)C3(CC3)[C@@](C)(O)C(=O)C2=C1
GI50 (TK-10 renal): 0.218 µM
TGI (TK-10 renal): 1.08 µM
GI50 (A549 NSCLC): 0.159 µM
TGI (A549 NSCLC): 4.21 µM
GI50 (CAKI-1 renal): 0.123 µM
TGI (CAKI-1 renal): 0.855 µM
GI50 (NCI-H226 lung): 0.157 µM
TGI (NCI-H226 lung): 0.587 µM
GI50 (BT-549 breast): 0.0358 µM
TGI (BT-549 breast): 0.157 µM
GI50 (SF-295 CNS): 0.222 µM
TGI (SF-295 CNS): 1.11 µM
GI50 (HS 578T breast): 0.302 µM
TGI (HS 578T breast): 1.28 µM
GI50 (LOX IMVI melanoma): 0.14 µM
TGI (LOX IMVI melanoma): 0.35 µM
GI50 (MOLT-4 leukemia): 0.38 µM
GI50 (T-47D breast): 0.108 µM
TGI (T-47D breast): 0.882 µM
GI50 (M14 melanoma): 0.101 µM
TGI (M14 melanoma): 0.254 µM
GI50 (IGROV1 ovarian): 0.0625 µM
TGI (IGROV1 ovarian): 0.312 µM
GI50 (A498 renal): 0.269 µM
TGI (A498 renal): 0.616 µM
GI50 (MDA-MB-468 breast): 0.1 µM
TGI (MDA-MB-468 breast): 0.239 µM
GI50 (NCI/ADR-RES ovarian): 0.104 µM
TGI (NCI/ADR-RES ovarian): 0.33 µM
GI50 (CCRF-CEM leukemia): 0.756 µM
TGI (CCRF-CEM leukemia): > 100 µM
GI50 (COLO 205 colon): 0.144 µM
TGI (COLO 205 colon): 0.303 µM
GI50 (SN12C renal): 0.167 µM
TGI (SN12C renal): 0.755 µM
GI50 (RPMI-8226 leukemia): 0.444 µM
TGI (RPMI-8226 leukemia): > 100 µM
GI50 (HL-60(TB) leukemia): 0.118 µM
GI50 (SK-OV-3 ovarian): 0.108 µM
TGI (SK-OV-3 ovarian): 0.606 µM
GI50 (UO-31 renal): 0.0534 µM
TGI (UO-31 renal): 0.263 µM
GI50 (ACHN renal): 0.0789 µM
TGI (ACHN renal): 0.636 µM
GI50 (EKVX NSCLC): 0.21 µM
TGI (EKVX NSCLC): 0.546 µM
GI50 (UACC-257 melanoma): 0.208 µM
TGI (UACC-257 melanoma): 0.464 µM
GI50 (OVCAR-5 ovarian): 0.0656 µM
TGI (OVCAR-5 ovarian): 0.416 µM
GI50 (HCC-2998 colon): 0.121 µM
TGI (HCC-2998 colon): 0.261 µM
GI50 (RXF 393 renal): 0.0207 µM
TGI (RXF 393 renal): 0.0394 µM
GI50 (SR leukemia): 0.237 µM
TGI (SR leukemia): 1.12 µM
GI50 (SK-MEL-5 melanoma): 0.0946 µM
TGI (SK-MEL-5 melanoma): 0.24 µM
GI50 (K-562 leukemia): 0.33 µM
GI50 (NCI-H522 lung): 0.167 µM
TGI (NCI-H522 lung): 0.369 µM
GI50 (MALME-3M melanoma): 0.135 µM
TGI (MALME-3M melanoma): 0.266 µM
GI50 (UACC-62 melanoma): 0.158 µM
TGI (UACC-62 melanoma): 0.315 µM
GI50 (DU-145 prostate): 0.0376 µM
TGI (DU-145 prostate): 0.845 µM
GI50 (786-0 renal): 0.11 µM
TGI (786-0 renal): 0.44 µM

COC(=O)[C@@H](C)C[C@H](Cc1ccccc1)NC(=O)c1csc([C@@H](C[C@H](C(C)C)N(C)C(=O)C2(NC(=O)[C@H]3CCCCN3C)CC2)OC(C)=O)n1
GI50 (MDA-MB-468 breast): 0.00251 µM

COCCNC(=O)c1ccc(-c2nc3ccc4[nH]ncc4c3c3c2CCCC3)cc1
GI50 (MDA-MB-468 breast): 2.46 µM
TGI (MDA-MB-468 breast): 50 µM

COc1ccc2nc(C)cc(Nc3ccccc3O)c2c1
GI50 (MDA-MB-468 breast): 13.8 µM
TGI (MDA-MB-468 breast): 45.6 µM

CCCCCCCCCCCC[n+]1ccc(C(N)=O)cc1
GI50 (MDA-MB-468 breast): 0.633 µM
TGI (MDA-MB-468 breast): 2.92 µM

COC(=O)[C@@]1(O)C[C@H]2O[C@]1(C)n1c3ccccc3c3c4c(c5c6ccccc6n2c5c31)C(=O)NC4
GI50 (MDA-MB-468 breast): 1.34 µM
TGI (MDA-MB-468 breast): 3.06 µM

CN1CCn2c(c(Sc3ccc(C(=O)NO)cc3)c3ccccc32)C1=O
GI50 (MDA-MB-468 breast): 1.43 µM
TGI (MDA-MB-468 breast): 3.25 µM

Cc1ccc(S(=O)(=O)Nc2nc3ccccc3nc2Nc2ccc3nsnc3c2)cc1
GI50 (MDA-MB-468 breast): 3.06 µM and 2.66 µM
TGI (MDA-MB-468 breast): 13.5 µM and 9.26 µM
